Measurements as given in the supplement of paper PMC10307832.

What was measured:
Experiment in all cases: relative viability (nuclei count vs DMSO), 5 days (fraction); higher = more cells survive
[1] = tested on: EMC-BAC-2
Outline: (§1)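 After 5 days of treatment, lung cancer cells in 1536-well plates were fixed and stained in a single step (final 0.05% Triton X-100, 1% formaldehyde, 1 ug/ml Hoechst) and their nuclei counted on 4× images. Treatment had been applied by pin tool the day after seeding as one drug alone or as a fixed anchor-drug dose with five library-drug doses (not always all listed) in √10 steps. Relative viability is the nuclei count of treated wells divided by that of vehicle wells, and values are medians of duplicate plates.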

[2] = tested on: EPLC-272H
Outline: as §1

[3] = tested on: H3255
Outline: as §1

[4] = tested on: HOP-62
Outline: as §1

[5] = tested on: LCLC-97TM1
Outline: as §1

[6] = tested on: LXF-289
Outline: as §1

[7] = tested on: NCI-H1563
Outline: as §1

[8] = tested on: NCI-H1650
Outline: as §1

[9] = tested on: NCI-H1915
Outline: as §1

[10] = tested on: NCI-H1993
Outline: as §1

[11] = tested on: NCI-H2009
Outline: as §1

[12] = tested on: NCI-H2023
Outline: as §1

[13] = tested on: NCI-H2085
Outline: as §1

[14] = tested on: NCI-H2126
Outline: as §1

[15] = tested on: NCI-H2342
Outline: as §1

[16] = tested on: NCI-H2347
Outline: as §1

[17] = tested on: NCI-H322M
Outline: as §1

[18] = tested on: NCI-H647
Outline: as §1

[19] = tested on: NCI-H661
Outline: as §1

[20] = tested on: NCI-H727
Outline: as §1

[21] = tested on: PC-14
Outline: as §1

[22] = tested on: SK-LU-1
Outline: as §1

[23] = tested on: SW 1573
Outline: as §1

O=C(O)c1ccc(-c2c[nH]c3ncc(-c4ccccc4)cc23)cc1C1CCCC1 + COc1cc2c(Oc3ccc(NC(=O)C4(C(=O)Nc5ccc(F)cc5)CC4)cc3F)ccnc2cc1OCCCN1CCOCC1 [Foretinib] (partner 0.25 µM)
relative viability ([1]; first compound 0.04 µM): 0.997 | relative viability ([1]; first compound 0.1265 µM): 1.08 | relative viability ([1]; first compound 0.4 µM): 0.97 | relative viability ([1]; first compound 1.265 µM): 0.857 | relative viability ([2]; first compound 0.04 µM): 0.694 | relative viability ([2]; first compound 0.1265 µM): 0.752 | relative viability ([2]; first compound 0.4 µM): 0.585 | relative viability ([2]; first compound 1.265 µM): 0.187 | relative viability ([3]; first compound 0.04 µM): 0.934 | relative viability ([3]; first compound 0.1265 µM): 1.08 | relative viability ([3]; first compound 0.4 µM): 0.888 | relative viability ([3]; first compound 1.265 µM): 0.814 | relative viability ([4]; first compound 0.04 µM): 1.09 | relative viability ([4]; first compound 0.1265 µM): 1.21 | relative viability ([4]; first compound 0.4 µM): 1.01 | relative viability ([4]; first compound 1.265 µM): 0.815 | relative viability ([5]; first compound 0.04 µM): 0.911 | relative viability ([5]; first compound 0.1265 µM): 1.03 | relative viability ([5]; first compound 0.4 µM): 0.892 | relative viability ([5]; first compound 1.265 µM): 0.525 | relative viability ([6]; first compound 0.04 µM): 0.972 | relative viability ([6]; first compound 0.1265 µM): 0.939 | relative viability ([6]; first compound 0.4 µM): 0.867 | relative viability ([6]; first compound 1.265 µM): 0.543 | relative viability ([7]; first compound 0.04 µM): 0.924 | relative viability ([7]; first compound 0.1265 µM): 1.03 | relative viability ([7]; first compound 0.4 µM): 0.853 | relative viability ([7]; first compound 1.265 µM): 0.97 | relative viability ([8]; first compound 0.04 µM): 1.22 | relative viability ([8]; first compound 0.1265 µM): 1.57 | relative viability ([8]; first compound 0.4 µM): 1.6 | relative viability ([8]; first compound 1.265 µM): 1.14 | relative viability ([9]; first compound 0.04 µM): 1.13 | relative viability ([9]; first compound 0.1265 µM): 1.11 | relative viability ([9]; first compound 0.4 µM): 1.03 | relative viability ([9]; first compound 1.265 µM): 0.783 | relative viability ([10]; first compound 0.04 µM): 0.788 | relative viability ([10]; first compound 0.1265 µM): 0.834 | relative viability ([10]; first compound 0.4 µM): 0.759 | relative viability ([10]; first compound 1.265 µM): 0.805 | relative viability ([11]; first compound 0.04 µM): 1.22 | relative viability ([11]; first compound 0.1265 µM): 1.22 | relative viability ([11]; first compound 0.4 µM): 1.22 | relative viability ([11]; first compound 1.265 µM): 0.968 | relative viability ([12]; first compound 0.04 µM): 0.988 | relative viability ([12]; first compound 0.1265 µM): 1 | relative viability ([12]; first compound 0.4 µM): 0.895 | relative viability ([12]; first compound 1.265 µM): 0.749 | relative viability ([13]; first compound 0.04 µM): 1.14 | relative viability ([13]; first compound 0.1265 µM): 0.988 | relative viability ([13]; first compound 0.4 µM): 0.845 | relative viability ([13]; first compound 1.265 µM): 0.56 | relative viability ([14]; first compound 0.04 µM): 1.25 | relative viability ([14]; first compound 0.1265 µM): 1.12 | relative viability ([14]; first compound 0.4 µM): 1.16 | relative viability ([14]; first compound 1.265 µM): 1.2 | relative viability ([15]; first compound 0.04 µM): 1.03 | relative viability ([15]; first compound 0.1265 µM): 1.11 | relative viability ([15]; first compound 0.4 µM): 1.18 | relative viability ([15]; first compound 1.265 µM): 0.991 | relative viability ([16]; first compound 0.04 µM): 0.861 | relative viability ([16]; first compound 0.1265 µM): 0.783 | relative viability ([16]; first compound 0.4 µM): 1.01 | relative viability ([16]; first compound 1.265 µM): 0.803 | relative viability ([17]; first compound 0.04 µM): 1.02 | relative viability ([17]; first compound 0.1265 µM): 1.03 | relative viability ([17]; first compound 0.4 µM): 0.993 | relative viability ([17]; first compound 1.265 µM): 0.824 | relative viability ([18]; first compound 0.04 µM): 1.33 | relative viability ([18]; first compound 0.1265 µM): 1.35 | relative viability ([18]; first compound 0.4 µM): 1.14 | relative viability ([18]; first compound 1.265 µM): 0.965 | relative viability ([19]; first compound 0.04 µM): 1 | relative viability ([19]; first compound 0.4 µM): 0.971 | relative viability ([19]; first compound 1.265 µM): 0.977 | relative viability ([20]; first compound 0.04 µM): 1.2 | relative viability ([20]; first compound 0.1265 µM): 0.823 | relative viability ([20]; first compound 0.4 µM): 0.754 | relative viability ([20]; first compound 1.265 µM): 0.944 | relative viability ([21]; first compound 0.04 µM): 0.943 | relative viability ([21]; first compound 0.1265 µM): 0.958 | relative viability ([21]; first compound 0.4 µM): 1.01 | relative viability ([21]; first compound 1.265 µM): 0.941 | relative viability ([22]; first compound 0.04 µM): 0.782 | relative viability ([22]; first compound 0.1265 µM): 0.875 | relative viability ([22]; first compound 0.4 µM): 0.705 | relative viability ([22]; first compound 1.265 µM): 0.51 | relative viability ([23]; first compound 0.04 µM): 0.977 | relative viability ([23]; first compound 0.1265 µM): 0.901 | relative viability ([23]; first compound 0.4 µM): 0.902 | relative viability ([23]; first compound 1.265 µM): 0.791
